What was measured:
BRD4 = BRD4 (Homo sapiens, UniProt O60885); experiment: Surface plasmon resonance (SPR) direct binding to BRD4; conditions: for Kd: SPR format assay, Kd above the top concentration projected by extrapolation (extrapolated Rmax from control compound); for selectivity between ATAD2 and BRD4, in words: BRD4 versus ATAD2
Description: Surface plasmon resonance (SPR) was used to assess the direct binding of the fragments and provide Kd values for binding to both ATAD2 and BRD4. SPR can yield artefactual data where the concentration of a small-molecular analyte exceeds ∼250 μM, and accordingly, this was the highest concentration used in the assays. Where the Kd exceeded this limit, projected Kds were determined by extrapolation, using the observed response units for compound binding (RU) relative to the molecular weight of a known control compound.[23]
(§1) 12.5 μM using an Echo 550 (Labcyte). Each well was backfilled to a final volume of 200 nl (for the […]), resulting in final DMSO concentrations of 2 %. 5 μl of GST-ATAD2 was added to each well and incubated for 30mins resulting in a final concentration of 5 nM.
(§2) 5μl of biotinylated-histone H4 peptide (SGRG-K(Ac)-GG-K(Ac)-GLG-K(Ac)-GGA-K(Ac)- RHRKVGG-K(Biotin)) was then added to each well at a final concentration of 500nM. Both GST-ATAD2 and peptide were diluted in buffer B (50 mM Tris pH 7.5, […], 1 mM DTT, 100 μg/ml bovine serum albumin (BSA)). The plate was then incubated at room temperature for 30mins and then 5 μl LanthaScreen® Tb-anti-GST Antibody (Life Technologies) at final concentration of 5 nM was added to each well and incubated for an additional 30mins. 5 μl of streptavidin-XLL65 (Cisbio Assay) at a final concentration of […] was added to each assay well. Both dyes were diluted in buffer C (50 mM Tris pH 7.5, […], 100 μg/ml BSA). The plate was incubated at room temperature for a further 30mins and then read using a PheraStar FS (BMG Labtech). The data were analysed using Graphpad […]
(§3) 1.4 Surface Plasmon Resonance (SPR).
(§4) SPR-based ligand binding assays were performed using Biacore S200 (GE Healthcare) at 25 °C using single cycle affinity.
(§5) ATAD2N1064A was achieved using standard amine coupling on a CM5 chip surface. The surface was prepared through activation with EDC/NHS, followed by injection of 10 µg/ml of respective proteins until target level 8000 RU was reached. The surface was then quenched using 1 M Ethanolamine and washed with running buffer 10 mM HEPES, 150mM NaCl, 0.01% TWEEN20, 0.5 mM TCEP and 1% DMSO with a flow rate of […]. Compounds were injected in a dose-response manner (8 concentration points ranging from 0-200 µM) in series across the control, ATAD2, BRD4, and ATAD2-N1064A flow cells using solvent correction to account for bulk refractive index changes. The reference control channel was subtracted […]
(§6) from immobilised channels and dose-response data was fitted using a steady state constant Rmax 1:1 binding model, using an extrapolated Rmax determined from a binding control compound in those cases where the extrapolated Kd value was greater than the top concentration used in the experiment (200 µM). K d values are reported to the nearest 100th of micromolar. 1 […]
(§7) Crystallisation was performed at 20 °C using the hanging drop vapor diffusion method.
(§8) Crystals of ATAD2 were grown by mixing 2µl ATAD2 at 7mg/ml and 2µl precipitant containing 0.1 M BIS-TRIS pH 6.5 and 2.0 M ammonium sulfate. Crystals were harvested in a diffusion solution containing 10 mM compound, 5% DMSO, 25 mM HEPES pH 7.5, 75 mM NaCl, 50 mM BIS-TRIS pH 6.5 and 1.0 M Ammonium Sulfate for 48hrs. Prior to data collection the crystals were cryo protected with the addition of 25% (v/v) ethylene glycol to the diffusion solution. X-ray diffraction data were recorded at Diamond Light Source (Harwell, Oxfordshire, UK). Data processing was carried out using XDS, POINTLESS/AIMLESS2 and other programs of the CCP4i suite3 run through the CCP4i2 gui. Structures were solved by molecular replacement using PHASER4 and pdb 3DAI as a starting model. REFMAC5 was employed for refinement, and model building was performed using COOT6. PDBs were deposited within the protein database www.pdb.org using accession codes: 11 XXXX, 15a […]

ATAD2 bromodomain = target: T1, ATAD2 bromodomain (Homo sapiens, UniProt Q6PL18); experiment: Surface plasmon resonance (SPR) direct binding to ATAD2; conditions: for Kd: SPR format assay, Kd above the top concentration projected by extrapolation (extrapolated Rmax from control compound)
T1 construct: 981-1108; GST (N); made in house; host or cells: Escherichia coli BL21 (DE3) pLysS, plasmid pGEX-6P-1
T1 sequence (Q6PL18 981-1108): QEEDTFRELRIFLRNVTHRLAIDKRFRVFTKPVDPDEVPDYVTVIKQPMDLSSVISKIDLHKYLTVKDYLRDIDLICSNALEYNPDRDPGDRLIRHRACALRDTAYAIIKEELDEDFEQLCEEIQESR
Description: (§9) Surface plasmon resonance (SPR) was used to assess the direct binding of the fragments and provide Kd values for binding to both ATAD2 and BRD4. SPR can yield artefactual data where the concentration of a small-molecular analyte exceeds ∼250 μM, and accordingly, this was the highest concentration used in the assays.
as §1, §2, §3, §4, §5, §6, §7, §8

[1] = target: T2, GST-ATAD2 bromodomain / biotinylated acetylated histone H4 peptide (Homo sapiens, UniProt Q6PL18); experiment: ATAD2-histone displacement HTRF assay; assay type: binding; conditions: for ATAD2 inhibition in HTRF, in words: highest concentration assayed 1000 μM; for IC50: HTRF format assay, highest concentration 1000 μM; for ATAD2 LE: Ligand efficiency (LE) = 1.4(–log IC50)/N, N = number of non-hydrogen atoms, from HTRF IC50
T2 construct: 981-1108; made in house; host or cells: Escherichia coli BL21 (DE3) pLysS, plasmid pGEX-6P-1
T2 sequence (Q6PL18 981-1108): T1 sequence (Q6PL18 981-1108)
Description: as §9
1.1 Protein Purification.
The ATAD2 bromodomain 981-1108 was expressed with an N-terminal GST fusion from the pGEX-6P-1 plasmid. The plasmids were transformed into BL21 (DE3) pLysS Escherichia coli (Novagen) and then the cells grown in luria bertani (LB) media at 37 °C until an OD600 of 0.6 was reached. The temperature was reduced to 20 °C and expression induced using 0.2 mM Isopropyl β-D-1-thiogalactopyranoside (IPTG). The cells were harvested after overnight incubation and resuspended in buffer A (20 mM HEPES pH 7.4, 100 mM NaCl, 5 mM Dithiothreitol (DTT)). The cells were lysed by sonication and the lysate cleared by centrifugation (50,000 x g, 4 °C, 1 hr). The protein was passed over 5ml of glutathione Sepharose 4B resin (GE Healthcare) at 4 °C. The resin was then washed with buffer A and the protein eluted with buffer A supplemented with 10 mM glutathione. The protein was then applied to a Superdex 200 26/60 gel filtration column (GE Healthcare) equilibrated in buffer […]
1.2 Isothermal Titration Calorimetry.
ATAD2 was exchanged into ITC buffer (50 mM HEPES pH7.4, 200 mM NaCl, 1 mM DTT).
ITC measurements were carried out at 25°C on a Microcal ITC 200 (Malvern Instruments Ltd, Malvern, UK). Compound 11 at 40mM, 2% DMSO was titrated into ATAD2 prepared in the cell at 150 μM, 2% DMSO. Titrations began with an initial 0.5 μL injection followed by 19x 2 μL injections of compound, with 120s spacing between each injection, and stirred at 1000 rpm throughout the experiment. Data were then analysed using Origin 7.0 (OriginLab Corp., Burlington, NC, USA) and fit with the one-set-of-sites model.
1.3 ATAD2-Histone displacement HTRF assay.
Compounds (dissolved to 100 mM in DMSO) were dispensed into black 384 well assay plates […]
as §1, §2, §3, §4
ATAD2N1064A was achieved using standard amine coupling on a CM5 chip surface. The surface was prepared through activation with EDC/NHS, followed by injection of 10 µg/ml of respective proteins until target level 8000 RU was reached. The surface was then quenched using 1 M Ethanolamine and washed with running buffer 10 mM HEPES, 150mM NaCl, 0.01% TWEEN20, 0.5 mM TCEP and 1% DMSO with a flow rate of […]. Compounds were injected in a dose-response manner (8 concentration points ranging from 0-200 µM) in series across the control, ATAD2, BRD4, and ATAD2-N1064A flow cells using solvent correction to account for bulk refractive index changes. The reference control channel was subtracted

| SMILES | Kd (BRD4) [µM] | ATAD2 binding by SPR, in words (ATAD2 bromodomain; SPR) | ATAD2 inhibition in HTRF, in words [1] | Kd (ATAD2 bromodomain) [µM] | binding constant towards ATAD2 relative to BRD4 (fold weaker) (ATAD2 bromodomain; SPR, ATAD2 Kd versus BRD4 Kd) [fold] | IC50 [1] [µM] | ATAD2 LE [1] | BRD4 binding by SPR, in words (BRD4; SPR) | selectivity between ATAD2 and BRD4, in words (BRD4; SPR) |
| --- | --- | --- | --- | --- | --- | --- | --- | --- | --- |
| Cn1cc2c(cc1=O)C(C)(C)C(=O)N2 [Compound 7] | > 2000 | bound too weakly to ATAD2 to allow Kd values to be calculated | some inhibition was observed at the highest concentration assayed | – | – | – | – | – | – |
| CCN1C(=O)C(C)(C)c2cc(=O)n(C)cc21 [Compound 14a] | 12.7 | – | some inhibition was observed at the highest concentration assayed | > 200 | 100 | > 1000 | – | – | – |
| Cn1cc2c(cc1=O)C(C)(C)C(=O)N2Cc1ccccc1 [Compound 14b] | > 200 | – | sub-millimolar HTRF IC50 values | > 2000 | – | 810 ± 57 | 0.21 | – | – |
| Cn1cc2c(cc1=O)C(C)(C)C(=O)N2CCc1ccccc1 [Compound 14c] | > 200 | – | sub-millimolar HTRF IC50 values | > 200 | – | 868 ± 33 | 0.19 | – | – |
| Cn1cc2c(cc1=O)C(C)(C)C(=O)N2CCN1CCCC1 [Compound 14d] | > 200 | – | – | > 2000 | – | > 1000 | – | – | – |
| Cn1cc2c(cc1=O)C(C)(C)C(=O)N2CCN1CCOCC1 [Compound 14e] | > 2000 | – | – | > 2000 | – | > 1000 | – | – | – |
| Cn1cc2c(cc1=O)C(C)(C)C(=O)N2CCO [Compound 14g] | > 2000 | – | – | > 2000 | – | > 1000 | – | – | – |
| CC1(C)C(=O)Nc2cn(Cc3ccccc3)c(=O)cc21 [Compound 15c] | > 200 | – | – | > 200 | – | > 1000 | – | – | – |
| CN1C(=O)C(C)(C)c2cc(=O)n(C)cc21 [Compound 17a] | > 200 | bound too weakly to ATAD2 to allow Kd values to be calculated | some inhibition was observed at the highest concentration assayed | > 2000 | – | > 1000 | – | detectable binding to BRD4 | – |
| CCCn1cc2c(cc1=O)C(C)(C)C(=O)N2C [Compound 17b] | > 200 | – | – | > 2000 | – | > 1000 | – | – | – |
| CN1C(=O)C(C)(C)c2cc(=O)n(Cc3ccccc3)cc21 [Compound 17c] | 101 | – | sub-millimolar ATAD2 IC50 values | > 200 | – | 681 ± 120 | 0.21 | – | bound more tightly to BRD4 than to ATAD2 |
| CN1C(=O)C(C)(C)c2cc(=O)n(CCc3ccccc3)cc21 [Compound 17d] | 161 | – | sub-millimolar ATAD2 IC50 values | > 200 | – | 741 ± 74 | 0.20 | – | bound more tightly to BRD4 than to ATAD2 |
| COC(=O)c1ccc(Cn2cc3c(cc2=O)C(C)(C)C(=O)N3C)cc1 [Compound 17e] | 141 | – | – | > 200 | – | 651 ± 1 | 0.18 | – | – |
| CN1C(=O)C(C)(C)c2cc(=O)n(Cc3ccc(C(=O)O)cc3)cc21 [Compound 17f] | > 200 | – | – | > 200 | – | 533 ± 40 | 0.19 | – | – |
| CN1C(=O)C(C)(C)c2cc(=O)n(Cc3ccc(C#N)cc3)cc21 [Compound 17g] | 142 | – | – | > 200 | – | 562 ± 67 | 0.20 | – | – |
| CN1C(=O)C(C)(C)c2cc(=O)n(Cc3ccc(C(N)=O)cc3)cc21 [Compound 17h] | > 200 | – | – | > 200 | – | 680 ± 66 | 0.18 | – | – |
| CN1C(=O)C(C)(C)c2cc(=O)n(Cc3ccc(S(C)(=O)=O)cc3)cc21 [Compound 17i] | 200 | – | – | > 200 | – | 359 ± 37 | 0.19 | – | – |
| CN1C(=O)C(C)(C)c2cc(=O)n(Cc3ccc(Cl)cc3)cc21 [Compound 17j] | 40 | – | – | 200 | – | 190 ± 63 | 0.24 | – | – |
| CN1C(=O)C(C)(C)c2cc(=O)n(Cc3ccc(Br)cc3)cc21 [Compound 17k] | 48 | – | – | 138 | – | 236 ± 36 | 0.23 | – | – |
| CN1C(=O)C(C)(C)c2cc(=O)n(Cc3ccc(C(F)(F)F)cc3)cc21 [Compound 17m] | 124 | – | – | > 200 | – | 179 ± 43 | 0.21 | – | – |
| CN1C(=O)C(C)(C)c2cc(=O)n(Cc3ccc(Cl)c(Cl)c3)cc21 [Compound 17n] | 65 | – | – | 159 | – | 299 ± 28 | 0.21 | – | – |
| CN1C(=O)C(C)(C)c2cc(=O)n(Cc3ccccc3C#N)cc21 [Compound 17o] | > 200 | – | – | > 2000 | – | > 1000 | – | – | – |

— PMC6102691, “Identification of a novel ligand for the ATAD2 bromodomain with selectivity over BRD4 through a fragment growing approach” (Organic & Biomolecular Chemistry, 2018)
